Results taken from US6586425B2, “Cytoskeletal active agents for glaucoma therapy” (Wisconsin Alumni Research Foundation, priority 1996, dated 2003).
Where two headings read alike, the source gives them in different places.

Columns and labels:
living monkey eyes [1] = assay: Slit lamp biomicroscopy (ocular tolerability); type: in vivo, cynomolgus monkeys (Macaca fascicularis); conditions: one to 5 hr after topical drug
living monkey eye = conditions: in vivo
corneal endothelium = conditions: 42 μg LAT-A topical, n=4
living monkey eyes [2] = assay: Aqueous humor flow and corneal endothelial transfer coefficient ka by fluorophotometry; conditions: for AHF Rx, LAT-B/Vehicle / AHF Rx/BL, LAT-B eye / AHF Rx/BL, LAT-B/Vehicle / ka Rx, LAT-B eye / ka Rx, LAT-B/Vehicle / ka Rx/BL, LAT-B eye / ka Rx/BL, LAT-B/Vehicle: 4.0 μg LAT-B topical
living monkey eyes [3] = assay: Slit lamp biomicroscopy (ocular tolerability); type: in vivo, cynomolgus monkeys (Macaca fascicularis)
Experimental: e) Ocular Tolerability/Toxicity: Ocular exams, including slit lamp biomicroscopy (Zeiss or Haag-Streit), gonioscopy, and binocular indirect ophthalmoscopy (American Optical or Keeler), were performed by a trained ophthalmologist, using when necessary contact lenses specially fabricated for the small monkey eye (Kaufman and Wallow, Exp. Eye Res., 40:883-885[1985]). In addition, specular microscopy was used to evaluate drug effects on the corneal endothelium.
The AC of both eyes of was cannulated with a branched needle as above, after which baseline facility measurements were taken for 35-45 min. With reservoirs closed, 2×5 μl drops of 200 μM (˜0.8 μg) or 4×5 μl drops of 500 μM (˜4.0 μg) LAT-B were given to one eye of the prone monkey, allowing 60-90 sec between drops. […] Vehicle (10 or 25% DMSO respectively) was given simultaneously to the opposite eye in a similar manner. The doses were chosen to give […] and 1 μM LAT-B concentrations respectively in the 100 μl monkey AC (See e.g., Erickson-Lamy et al., Arch. Opthalmol., 102:1815-1820[1984]), assuming 1% penetration and no initial drug loss from the AC (Asseff et al., Amer. J. Ophthalmol., 75:212-215[1973]; Harris, in Leopold (ed.), Symposium on Ocular Therapy, C. V. Mosby, St. Louis, Mo., [1968], pp. 96-105; Janes and Stiles, Arch. Ophthahnol., 62:69-74[1959]). The perfusion system remained closed for 2 hr, after which facility measurements were taken for 90 min. Biomicroscopy was performed by an ophthalmologist before and 3, 7 and 14 days after drug administration.
For slit lamp biomicroscopy, a trained ophthalmologist examined all eyes by slit lamp, for integrity of the corneal epithelium and endothelium, presence of flare or cells in the anterior chamber and clarity of the lens. All animals were free of ocular abnormalities when studied.

living monkey eyes [4] = assay: Aqueous humor protein concentration (Lowry method); type: in vivo, cynomolgus monkeys (Macaca fascicularis); conditions: 4 μg LAT-B topical, insignificant
From the text: Approximately 5.5 hr after LAT-A and vehicle (25% DMSO) administration, or approximately 6.5 hr after LAT-B and vehicle (25% DMSO) administration, when AHF measurements had been completed, a sample of AH was obtained under a Zeiss surgical microscope, using a 30-gauge needle connected via polyethylene tubing to a tuberculin syringe. The needle was threaded through the corneal stroma for 6 mm, then directed into the AC so that the wound was self-sealing. AH entered the tubing by very gentle suction with the tuberculin syringe; only occasionally was brief mild pressure on the cornea with a needle holder required to promote the initial flow of AH into the tubing via the very thin needle. Approximately 60-80 μl of AH was removed, leaving a shallow but not completely flattened AC. In separate protocols with different monkeys, AH was similarly obtained 2 hr after 42 μg LAT-A or 1 hr after 4 μg LAT-B to one eye and vehicle to the opposite eye. The AH samples were stored at −20° C. for up to 24 hr. The protein concentration in each sample was assayed by the Lowry method, as known in the art (See e.g., Lowry et al., J. Biol. Chem., 193:265-275[1951]; and Peterson et al., Anal. Biochem., 100:201-220[1979]), in duplicate, and the result averaged. Duplicate sets of protein standards containing 0, 1, 3, 5, 10, 20, 40, or 60 μg bovine serum albumin (BSA) were assayed by the same method and results averaged and graphed to give a linear equation that was used to estimate the protein content in the AH samples. The optical density of each sample was measured at 660 nm using a Spectronic 20 Spectrophotometer (Bausch and Lomb).

## C/C1=C/C(=O)O[C@@H]2C[C@@H](CC[C@H](C)/C=C\CC1)O[C@@](O)([C@@H]1CSC(=O)N1)C2 [LAT-B]
Living monkey eyes [1]
  corneal endothelial cell borders: indistinct
Living monkey eye
  BL2/BL1, LAT-B eye: 0.90 ± 0.05
  BL2/BL1, LAT-B/Veh: 0.96 ± 0.06
  Baseline facility BL2, LAT-B eye: 0.33 ± 0.03 μl min^−1 mmHg^−1
  Baseline facility BL2, LAT-B/Veh: 1.01 ± 0.08
  baseline facility vs baseline immediately prior to LAT-B: not significantly different
  facility increase, average over 90 min: 456±128%
  initial post-drug facility increase over final baseline value: 379±125%
  potency relative to LAT-A in the live monkey TM: at least 10 fold
Corneal endothelium; 3 days
  Cell count Exp, drug eye: 2188 ± 430 cell per square millimeter
  Cell count Exp, drug/Vehicle: 0.86 ± 0.11
  Cell count Exp, drug−Vehicle: −281 ± 248 cell per square millimeter
  Cell count Exp/BL, drug eye: 0.83 ± 0.14
  Cell count Exp/BL, drug/Vehicle: 0.80 ± 0.11
  Cell count Exp/BL, drug−Vehicle: −0.18 ± 0.10
Corneal endothelium; 7 days
  Cell count Exp, drug eye: 2494 ± 166 cell per square millimeter
  Cell count Exp, drug/Vehicle: 1.04 ± 0.03
  Cell count Exp, drug−Vehicle: 94 ± 68 cell per square millimeter
  Cell count Exp/BL, drug eye: 0.94 ± 0.04
  Cell count Exp/BL, drug/Vehicle: 0.96 ± 0.02
  Cell count Exp/BL, drug−Vehicle: −0.04 ± 0.02
Corneal endothelium; 14 days
  Cell count Exp, drug eye: 2581 ± 143 cell per square millimeter
  Cell count Exp, drug/Vehicle: 1.03 ± 0.05
  Cell count Exp, drug−Vehicle: 75 ± 108 cell per square millimeter
  Cell count Exp/BL, drug eye: 0.98 ± 0.02
  Cell count Exp/BL, drug/Vehicle: 0.95 ± 0.03
  Cell count Exp/BL, drug−Vehicle: −0.05 ± 0.03
Living monkey eyes [2]; 4 μg LAT-B topical, first 3 hr
  effect on AHF: small, insignificant increase in AHF
  increase in ka: 58±20%
Living monkey eyes [2]; 4 μg LAT-B topical, overall 6 hr, n=6
  increase in ka: 39±5%
Living monkey eyes [2]; hour 0.5 to 3.0, n=6
  AHF Rx, LAT-B/Vehicle: 1.33
  AHF Rx/BL, LAT-B eye: 1.31
  AHF Rx/BL, LAT-B/Vehicle: 1.33
  ka Rx, LAT-B eye: 0.00735 min⁻¹
  ka Rx, LAT-B/Vehicle: 1.62
  ka Rx/BL, LAT-B eye: 1.44
  ka Rx/BL, LAT-B/Vehicle: 1.58
Living monkey eyes [2]; hour 0.5 to 6.0, n=6
  AHF Rx, LAT-B/Vehicle: 1.14
  AHF Rx/BL, LAT-B eye: 1.04
  AHF Rx/BL, LAT-B/Vehicle: 1.16
  ka Rx, LAT-B eye: 0.00648 min⁻¹
  ka Rx, LAT-B/Vehicle: 1.34
  ka Rx/BL, LAT-B eye: 1.33
  ka Rx/BL, LAT-B/Vehicle: 1.39
Living monkey eyes [2]; hour 3.5 to 6.0, n=6
  AHF Rx, LAT-B/Vehicle: 0.93
  AHF Rx/BL, LAT-B eye: 0.84
  AHF Rx/BL, LAT-B/Vehicle: 0.91
  ka Rx, LAT-B eye: 0.0063 min⁻¹
  ka Rx, LAT-B/Vehicle: 1.21
  ka Rx/BL, LAT-B eye: 1.31
  ka Rx/BL, LAT-B/Vehicle: 1.25
Living monkey eyes [3]; 4 μg LAT-B
  recovery of corneal endothelium: by 6 hr, the corneal endothelium of almost all treated eyes had recovered
Living monkey eyes [3]; LAT-B 0.8 μg topical, 3 days after drug and AC perfusion
  biomicroscopy findings: no adverse effects
Living monkey eyes [3]; LAT-B 4.0 μg topical, day 3 after perfusion
  biomicroscopy findings: two drug-treated eyes exhibited a small clot of blood in the AC
Living monkey eyes [3]; LAT-B topical, day 7
  biomicroscopy findings: all eyes appeared biomicroscopically normal
Living monkey eyes [3]; after topical drug
  lens appearance: always appeared normal
Living monkey eyes [3]; topical LAT-A (21 or 42 μg) or LAT-B (4 μg) in 25% DMSO
  corneal epithelium at slit lamp: mild transient corneal epithelial cloudiness
Living monkey eyes [3]; topical, recovered by 24-48 hr
  eyes that developed flare (1-2+ on a scale of 0-4+): one LAT-B-treated eye
Living monkey eyes [4]; 1 hr, n=4
  [Protein]AC increase vs contralateral control eyes: 80±51%
Living monkey eyes [4]; 6.5 hr, n=6
  [Protein]AC increase vs contralateral control eyes: 11±24%
